The values below come from US10479788B2, “Compounds that inhibit MPS1 kinase” (Cancer Research Technology Limited, priority 2012, dated 2019).

As a reminder, the IC50 is the concentration that gives 50% inhibition. Read a high IC50 as weaker potency in that assay.

In the test the target is full length MPS1 (Homo sapiens (Human), UniProt P33981). The test is described as follows: Measurement of Inhibition of MPS1 Kinase. Type of test: biochemical. Conditions: full length MPS1 12.5 nM or 3 nM, H236 peptide 5 μM, ATP 10 μM, 60 min at room temperature, Caliper EZ reader II. On the procedure:
The reaction was carried out for 60 min at room temperature and stopped by the addition of buffer (10 μl) containing 20 mM EDTA, 0.05% (v/v) Brij-35, in 0.1M HEPES-buffered saline (Free acid, Sigma, UK). The plate was read on a Caliper EZ reader II (Caliper Life Sciences).
The % inhibition of the compounds is calculated relative to the means of selected control wells. […] The % inhibitions at each concentration are then fitted to a 4 parameter logistic fit: y=(a+((b−a)/(1+((c/x^d)))) where a=asym min, b=asym max, c=IC50 and d=hill coefficient

full length MPS1, sequence (P33981 whole entry): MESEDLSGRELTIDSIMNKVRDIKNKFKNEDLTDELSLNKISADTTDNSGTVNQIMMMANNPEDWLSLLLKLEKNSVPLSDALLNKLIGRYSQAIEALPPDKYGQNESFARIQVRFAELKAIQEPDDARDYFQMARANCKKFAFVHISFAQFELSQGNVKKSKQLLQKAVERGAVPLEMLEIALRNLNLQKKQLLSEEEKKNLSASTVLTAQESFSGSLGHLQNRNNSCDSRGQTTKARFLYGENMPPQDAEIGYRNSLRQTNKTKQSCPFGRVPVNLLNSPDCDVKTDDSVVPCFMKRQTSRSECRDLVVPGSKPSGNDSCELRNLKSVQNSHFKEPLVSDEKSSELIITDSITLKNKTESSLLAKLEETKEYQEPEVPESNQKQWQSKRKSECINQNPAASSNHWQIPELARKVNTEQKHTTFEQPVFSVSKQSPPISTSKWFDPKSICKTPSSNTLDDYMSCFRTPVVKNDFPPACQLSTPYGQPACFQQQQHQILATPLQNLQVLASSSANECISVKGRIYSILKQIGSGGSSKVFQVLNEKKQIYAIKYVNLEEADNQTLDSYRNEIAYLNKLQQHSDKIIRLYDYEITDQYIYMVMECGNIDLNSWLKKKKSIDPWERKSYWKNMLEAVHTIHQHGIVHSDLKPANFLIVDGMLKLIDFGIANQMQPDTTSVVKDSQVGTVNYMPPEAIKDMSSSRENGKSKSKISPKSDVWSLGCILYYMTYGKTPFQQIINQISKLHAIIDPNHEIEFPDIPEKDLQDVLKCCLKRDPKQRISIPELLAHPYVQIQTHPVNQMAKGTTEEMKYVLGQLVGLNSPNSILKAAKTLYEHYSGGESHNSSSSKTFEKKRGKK

The compound `COc1cc(-c2cnn(C)c2)ccc1Nc1ncc2ccnc(N3CCCC3C)c2n1` (stereo not shown) [Example 64] came in with an IC50 of 6 nM.
